Where no end group is shown, it is not given here.

One experiment deals with T1, AM2 receptor (1321N1 cells transfected with CALCRL+RAMP3) (Homo sapiens, UniProt O60896+Q16602).
T1 construct: host or cells: 1321N1 cells
T1 sequence (Q16602 23-461): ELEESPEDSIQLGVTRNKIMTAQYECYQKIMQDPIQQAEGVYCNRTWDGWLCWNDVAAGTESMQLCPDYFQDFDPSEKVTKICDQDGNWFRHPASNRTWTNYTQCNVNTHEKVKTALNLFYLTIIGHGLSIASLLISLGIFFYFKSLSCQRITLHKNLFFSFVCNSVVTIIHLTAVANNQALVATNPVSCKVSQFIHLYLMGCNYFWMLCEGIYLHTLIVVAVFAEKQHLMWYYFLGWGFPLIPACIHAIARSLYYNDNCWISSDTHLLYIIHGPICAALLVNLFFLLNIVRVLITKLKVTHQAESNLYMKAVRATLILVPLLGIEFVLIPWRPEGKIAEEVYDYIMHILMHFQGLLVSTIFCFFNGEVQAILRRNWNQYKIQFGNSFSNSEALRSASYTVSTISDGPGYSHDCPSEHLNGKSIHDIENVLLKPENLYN
T1 sequence (O60896 24-148): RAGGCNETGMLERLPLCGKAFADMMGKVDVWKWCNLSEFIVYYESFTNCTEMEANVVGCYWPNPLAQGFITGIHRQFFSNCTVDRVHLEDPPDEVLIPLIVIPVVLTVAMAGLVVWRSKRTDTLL
In words: AM2 receptor inhibition, LANCE cAMP agonist-antagonist competition assay. The experiment is classed as cell-based. To be noted: inhibition of AM induced cAMP activation, read-out: AM2 D2 protocol: pIC50 (converted). The essentials: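 cAMP was quantified by LANCE TR-FRET after an EC50 challenge with adrenomedullin (15 min, room temperature) in CALCRL+RAMP3-transfected 1321N1 cells (2500/well) that had first been exposed to compound for 30 min. Buffer was pH 7.4 HBSS with HEPES and BSA. Forskolin defined 100% stimulation and vehicle 0%.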
(In general: Time-resolved FRET reads energy transfer from a long-lived donor to a nearby acceptor.)
On to `CNCc1ccc(F)cc1CN(CC(=O)Nc1ccc2c(c1)C[C@@]1(C2)C(=O)Nc2ncccc21)C(=O)C1(C)CCNCC1` [Example 135, (R)—N-(5-Fluoro-2-((methylamino)methyl)benzyl)-4-methyl-N-(2-oxo-2-((2′-oxo-1,1′,2′,3-tetrahydrospiro[indene-2,3′-pyrrolo[2,3-b]pyridin]-5-yl)amino)ethyl)piperidine-4-carboxamide], for which the IC50 was 55 nM.
Still for that read-out and setting: next, `CNCc1cc(F)ccc1CN(CC(=O)Nc1ccc2c(c1)C[C@@]1(C2)C(=O)Nc2ncccc21)C(=O)C1(C)CCNCC1` [Example 137, (R)—N-[[4-Fluoro-2-(methylaminomethyl)phenyl]methyl]-4-methyl-N-[2-oxo-2-[[(3R)-2-oxospiro[1H-pyrrolo[2,3-b]pyridine-3,2′-indane]-5′-yl]amino]ethyl]piperidine-4-carboxamide]: 417 nM; `CNCc1cc(F)ccc1CN(CC(=O)Nc1ccc2c(c1)C[C@@]1(C2)C(=O)Nc2ncccc21)C(=O)C1(C)CCN(C(C)=O)CC1` [Example 138, (R)-1-Acetyl-N-[[4-fluoro-2-(methylaminomethyl)phenyl]methyl]-4-methyl-N-[2-oxo-2-[[(3R)-2-oxospiro[1H-pyrrolo[2,3-b]pyridine-3,2′-indane]-5′-yl]amino]ethyl]piperidine-4-carboxamide]: 501 nM.
Same read-out and setting: with `CNCc1ccccc1CN(CC(=O)Nc1ccc2c(c1)CC1(C2)C(=O)Nc2ncccc21)C(=O)C12CCN(CC1)CC2` (stereo not drawn) [Example 139, N-(2-((Methylamino)methyl)benzyl)-N-(2-oxo-2-((2′-oxo-1,1′,2′,3-tetrahydrospiro[indene-2,3′-pyrrolo[2,3-b]pyridin]-5-yl)amino)ethyl)quinuclidine-4-carboxamide] the figure was 56.2 nM.
As to `CCC1(C(=O)N(CC(=O)Nc2ccc3c(c2)C[C@@]2(C3)C(=O)Nc3ncccc32)Cc2ccccc2CNC)CCN(C)C(=O)C1` (stereo partly drawn) [Example 140, 4-Ethyl-1-methyl-N-(2-((methylamino)methyl)benzyl)-2-oxo-N-(2-oxo-2-(((R)-2′-oxo-1,1′,2′,3-tetrahydrospiro[indene-2,3′-pyrrolo[2,3-b]pyridin]-5-yl)amino)ethyl)piperidine-4-carboxamide], the IC50 was 417 nM.
Still for that read-out and setting: with `CCC1(C(=O)N(CC(=O)Nc2ccc3c(c2)C[C@@]2(C3)C(=O)Nc3ncccc32)Cc2ccccc2CNC(C)C)CCN(C(C)=O)CC1` [Example 141, (R)-1-Acetyl-4-ethyl-N-(2-((isopropylamino)methyl)benzyl)-N-(2-oxo-2-((2′-oxo-1,1′,2′,3-tetrahydrospiro[indene-2,3′-pyrrolo[2,3-b]pyridin]-5-yl)amino)ethyl)piperidine-4-carboxamide] the figure was 102 nM; with `CNCc1ccccc1CN(CC(=O)Nc1ccc2c(c1)C[C@@]1(C2)C(=O)Nc2ncccc21)C(=O)C1(C)CCNC1` (stereo partly drawn) [Example 142, 3-Methyl-N-(2-((methylamino)methyl)benzyl)-N-(2-oxo-2-(((R)-2′-oxo-1,1′,2′,3-tetrahydrospiro[indene-2,3′-pyrrolo[2,3-b]pyridin]-5-yl)amino)ethyl)pyrrolidine-3-carboxamide], 40.7 nM; with `CNCc1ccccc1CN(CC(=O)Nc1ccc2c(c1)C[C@@]1(C2)C(=O)Nc2ncccc21)C(=O)C1(C)CCN(C(C)=O)C1` (stereo partly drawn) [Example 143, Acetyl-3-methyl-N-(2-((methylamino)methyl)benzyl)-N-(2-oxo-2-(((R)-2′-oxo-1,1′,2′,3-tetrahydrospiro[indene-2,3′-pyrrolo[2,3-b]pyridin]-5-yl)amino)ethyl)pyrrolidine-3-carboxamide], 51.3 nM.
Same read-out and setting: next, `CNCc1ccccc1CN(CC(=O)Nc1ccc2c(c1)C[C@@]1(C2)C(=O)Nc2ncccc21)C(=O)C1(C)CN(C(C)=O)C1` [Example 144, (R)-1-Acetyl-3-methyl-N-(2-((methylamino)methyl)benzyl)-N-(2-oxo-2-((2′-oxo-1,1′,2′,3-tetrahydrospiro[indene-2,3′-pyrrolo[2,3-b]pyridin]-5-yl)amino)ethyl)azetidine-3-carboxamide]: 75.9 nM; `CNCc1ccccc1CN(CC(=O)Nc1ccc2c(c1)C[C@@]1(C2)C(=O)Nc2ncccc21)C(=O)C1(C)CCCN(C(C)=O)C1` (stereo partly drawn) [Example 145, 1-Acetyl-3-methyl-N-(2-((methylamino)methyl)benzyl)-N-(2-oxo-2-(((R)-2′-oxo-1,1′,2′,3-tetrahydrospiro[indene-2,3′-pyrrolo[2,3-b]pyridin]-5-yl)amino)ethyl)piperidine-3-carboxamide]: 302 nM.
With `CNCc1ccccc1CN(CC(=O)Nc1ccc2c(c1)C[C@@]1(C2)C(=O)Nc2ncccc21)C(=O)C1(C)CCCNC1` (stereo partly drawn) [Example 146, 3-Methyl-N-(2-((methylamino)methyl)benzyl)-N-(2-oxo-2-(((R)-2′-oxo-1,1′,2′,3-tetrahydrospiro[indene-2,3′-pyrrolo[2,3-b]pyridin]-5-yl)amino)ethyl)piperidine-3-carboxamide], the IC50 is 229 nM.
On the same count and under the same terms, next, `CCC1(C(=O)N(CC(=O)Nc2ccc3c(c2)C[C@@]2(C3)C(=O)Nc3ncccc32)Cc2ccccc2CNC)CCS(=O)(=O)CC1` [Example 147, (R)-4-Ethyl-N-(2-((methylamino)methyl)benzyl)-N-(2-oxo-2-((2′-oxo-1,1′,2′,3-tetrahydrospiro[indene-2,3′-pyrrolo[2,3-b]pyridin]-5-yl)amino)ethyl)tetrahydro-2H-thiopyran-4-carboxamide 1,1-dioxide]: 10.5 nM.
As to `CNCc1ccccc1CN(CC(=O)Nc1ccc2c(c1)C[C@@]1(C2)C(=O)Nc2ncccc21)C(=O)C1(C)CC2CCC(C1)N2C(C)=O` (stereo partly drawn) [Example 148, 8-Acetyl-3-methyl-N-(2-((methylamino)methyl)benzyl)-N-(2-oxo-2-(((R)-2′-oxo-1,1′,2′,3-tetrahydrospiro[indene-2,3′-pyrrolo[2,3-b]pyridin]-5-yl)amino)ethyl)-8-azabicyclo[3.2.1]octane-3-carboxamide], the IC50 was 2.24 nM.
As to `CNCc1ccccc1CN(CC(=O)Nc1ccc2c(c1)C[C@@]1(C2)C(=O)Nc2ncccc21)C(=O)C1(C)CCCN(C(C)=O)CC1` (stereo partly drawn) [Example 149, 1-Acetyl-4-methyl-N-(2-((methylamino)methyl)benzyl)-N-(2-oxo-2-(((R)-2′-oxo-1,1′,2′,3-tetrahydrospiro[indene-2,3′-pyrrolo[2,3-b]pyridin]-5-yl)amino)ethyl)azepane-4-carboxamide], the IC50 is 2.88 nM.

In the next experiment the test system is human pancreatic cancer cells.
Test: not given
To be noted: local injection directly into tumours, pancreatic cancer model; cited from earlier work.
With “AM22-52: "the AM peptide antagonist (AM22-52)"; "peptide and antibody AM2 receptor inhibitors are known such as AM22-52" (TVQKLAHQIYQFTDKDKDNVAPRSKISPQGY; ends and bridges not checked; UniProt P35318 116-146, looked up, fragment)”, the “tumour size compared to controls” value is reported as “reduced tumour size significantly”.
